Experimental findings from ChEMBL document CHEMBL1150976, “The selectivity of protein kinase inhibitors: a further update” (Biochem J, 2007) are described below.

In experiment [1] the target is Cyclin-dependent kinase 2/cyclin A (Homo sapiens) (UniProt P24941+P20248+P78396). As to the kind of experiment: Percentage CDK2-cyclinA activity remaining in the presence of 2uM inhibitor. It is filed as protein-complex assay.
Experiment [2] deals with cAMP-dependent protein kinase catalytic subunit alpha (Homo sapiens, UniProt P17612). Description: Percentage PKA activity remaining in the presence of 2uM inhibitor.

`Cn1cc(C2=C(c3ccc(Cl)cc3Cl)C(=O)NC2=O)c2ccccc21`: the Activity in experiment [1] came to 52%; in experiment [2] it was 88%.
